We go through 18 compounds from ChEMBL document CHEMBL5230107, “Anticancer boron-containing prodrugs responsive to oxidative stress from the tumor microenvironment” (Eur J Med Chem, 2020).

pIC50: −log10 of the molar value.

One data set deals with HL-60. Nature of the data set: Cytotoxicity against human HL-60 cells assessed as inhibition of cell growth. It is filed as functional, cell-based.
A further data set has as its system NCI-H1993. Nature of the data set: Cytotoxicity against human NCI-H1993 cells assessed as inhibition of cell growth. The class given is functional, cell-based.
Data set [1] concerns B16-F10. Nature of the data set: Antiproliferative activity against mouse B16-F10 cells assessed as reduction in cell viability at 100 uM. The class given is functional.
Data set [2] has as its system HeLa. Nature of the data set: Antiproliferative activity against human HeLa cells assessed as reduction in cell viability at 100 uM. It is filed as functional.
A further data set concerns U-937. Nature of the data set: Antiproliferative activity against human U-937 cells assessed as reduction in cell viability. The class given is functional.
A further data set has as its system MV4-11. Nature of the data set: Antiproliferative activity against human MV4-11 cells assessed as reduction in cell viability. It is filed as functional.
In data set [3] the test system is B16-F10. Nature of the data set: Antitumor activity against mouse B16-F10 cells implanted in mouse assessed as increase in survival time at 0.25 mg/kg, po. It is filed as functional.
For another data set, the system named is MIA PaCa-2. Nature of the data set: Cytotoxicity against human MIA PaCa-2 cells assessed as inhibition of cell growth measured after 72 hrs by MTS assay. The settings on record: MIA PaCa-2, 72 h. The class given is functional, cell-based.
Data set [4] deals with MCF7. Nature of the data set: Antitumor activity against human MCF7 cells xenografted in mouse assessed as tumor regression at 5 mg/kg, po. The class given is functional.
The test system of data set [5] is 4T1. Nature of the data set: Cytotoxicity against mouse 4T1 cells assessed as reduction in cell viability. The class given is functional, cell-based.
In data set [6] the test system is NIH3T3. Nature of the data set: Cytotoxicity against mouse NIH3T3 cells assessed as reduction in cell viability. It is filed as functional, cell-based.
Data set [7] has as its system 4T1. Nature of the data set: Antitumor activity against mouse 4T1 cells implanted in mouse assessed as reduction in tumor volume at 37 mg/kg, iv. Further details: scale not given: the % may be the effect or the level left. The class given is functional.
Data set [8] can be described thus: Antiproliferative activity against human U-87 MG cells assessed as reduction in cell viability. The class given is functional, cell-based, U-87MG ATCC.
For data set [9], the system named is MCF7. Nature of the data set: Antitumor activity against human MCF7 cells xenografted in BALB/c nude mouse assessed as tumor growth inhibition at 10 mg/kg, iv. The class given is functional. As to conditions: read-out: TGI.
Data set [10] is described as follows: Cytotoxicity against human MRC5 cells assessed as reduction in cell viability by Almar Blue stained fluorescence-based assay. The class given is toxicity.
The subject of data set [11] is DU-145. Nature of the data set: Antiproliferative activity against human DU-145 cells assessed as reduction in cell viability. It is filed as functional, cell-based.
Data set [12] has as its system NIH3T3. Nature of the data set: Antiproliferative activity against mouse NIH3T3 cells assessed as reduction in cell viability. The class given is functional, cell-based.
For data set [13], the system named is DU-145. Nature of the data set: Antitumor activity against human DU-145 cells implanted in mouse assessed as reduction in tumor volume at 2 mg/kg, po. The class given is functional. Also on record: scale not given: the % may be the effect or the level left.
The next data set has as its system A549. Nature of the data set: Cytotoxicity against human A549 cells assessed as reduction in cell viability by Almar Blue stained fluorescence-based assay. It is filed as functional.
Data set [14] concerns HeLa. Nature of the data set: Cytotoxicity against human HeLa cells assessed as reduction in cell viability by Almar Blue stained fluorescence-based assay. It is filed as functional.
Another data set concerns MDA-MB-231. Nature of the data set: Cytotoxicity against human MDA-MB-231 cells assessed as reduction in cell viability by Almar Blue stained fluorescence-based assay. The class given is functional.
The test system of another data set is SR. Nature of the data set: Antiproliferative activity against human SR cells assessed as growth inhibition at 10 uM relative to control. The class given is functional. Further details: scale not given: the % may be the effect or the level left.
The next data set has as its system NCI-H460. Nature of the data set: Antiproliferative activity against human NCI-H460 cells assessed as growth inhibition at 10 uM relative to control. The class given is functional. Also on record: scale not given: the % may be the effect or the level left.
Data set [15] relates to HeLa. Nature of the data set: Cytotoxicity against human HeLa cells assessed as inhibition of cell growth. It is filed as functional, cell-based.
In another data set the test system is PSN1. Nature of the data set: Antiproliferative activity against human PSN1 cells assessed as reduction in cell viability measured for 72 hrs by CCK-8 assay. As to conditions: PSN1, 72 h. It is filed as functional, cell-based.
A further data set concerns BXPC-3. Nature of the data set: Antiproliferative activity against human BXPC-3 cells assessed as reduction in cell viability measured for 72 hrs by CCK-8 assay. The settings on record: BXPC-3, 72 h. The class given is functional, cell-based.
Data set [16] can be described thus: Antiproliferative activity against human Nasopharyngeal carcinoma cell line assessed as reduction in cell viability measured for 72 hrs by CCK-8 assay. The class given is functional, cell-based.
In data set [17] the test system is Panel NCI-60 (60 carcinoma cell lines). Nature of the data set: Cytotoxicity against human Panel NCI-60 (60 carcinoma cell lines). The class given is functional, cell-based.

Take `CN(Cc1cnc2nc(N)nc(NC(=O)OCc3ccc(B(O)O)cc3)c2n1)c1ccc(C(=O)N[C@H](CCC(=O)O)C(=O)O)cc1`: in the data set on HL-60, the pIC50 is 7.30.

On to `C[C@@H](Oc1cc(-c2cnn(C3CCNCC3)c2)cnc1NC(=O)OCc1ccc(B(O)O)cc1)c1c(Cl)ccc(F)c1Cl`, for which the IC50 in the data set on NCI-H1993 amounted to 3 µM. For the compound `CC[C@@]1(O)C(=O)OCc2c1cc1n(c2=O)Cc2cc3cc(O)ccc3nc2-1` [HYDROXYCAMPTOTHECIN], the Activity with B16-F10 [1] and in the data set on HeLa [2] was 60% throughout. Consider `O=C(CCCCCCC(=O)Nc1ccccc1)NOCc1ccc(B(O)O)cc1`, for which the Activity with U-937 and with MV4-11 was 20% each time.

Consider `CC[C@@]1(O)C(=O)OCc2c1cc1n(c2=O)Cc2cc3cc(OC(=O)OCc4cc5ccc(B(O)O)cc5oc4=O)ccc3nc2-1`, for which the Activity in the data set on B16-F10 [1] and in the data set on HeLa [2] was 60% throughout. Besides, the Time in the data set on B16-F10 [3] came out at 1 days. Turning to `O=C(CCCCCCC(=O)Nc1ccccc1)NO` [VORINOSTAT], the Activity in the data set with U-937 and with MV4-11 was 20% in each case. Regarding `COc1cccc2c1C(=O)c1c(O)c3c(c(O)c1C2=O)C[C@@](O)(C(=O)CO)C[C@@H]3O[C@H]1C[C@H](N)[C@H](O)[C@H](C)O1` [DOXORUBICIN], the pIC50 in the data set on MIA PaCa-2 is 6.70. The Activity in the data set with MCF7 [4] worked out at 50%. With `CCN(CC)C(=S)SCc1ccc(B2OC(C)(C)C(C)(C)O2)cc1`, the results for the negative logarithm of the IC50 (pIC50) in the data set on 4T1 [5] and with NIH3T3 [6] were 6.00 and 5.22, respectively. The Activity in the data set on 4T1 [7] was 80%. Regarding `CC[C@@]1(O)C(=O)OCc2c1cc1n(c2=O)Cc2cc3ccccc3nc2-1` [CAMPTOTHECIN], in data set [8], the pIC50 is 6.60.

As to `CC(=O)O[C@H]1C(=O)[C@@]2(C)[C@H]([C@H](OC(=O)c3ccccc3)[C@]3(O)C[C@H](OC(=O)[C@H](O)[C@@H](NC(=O)c4ccccc4)c4ccccc4)C(C)=C1C3(C)C)[C@]1(OC(C)=O)CO[C@@H]1C[C@@H]2O` [PACLITAXEL], in the data set with MCF7 [9], the inhibition in vivo at 10 mg/kg was determined as 60%. Also, the pIC50 in data set [10] was 4.60. On to `C[C@@H](Oc1cc(-c2cnn(C3CCNCC3)c2)cnc1N)c1c(Cl)ccc(F)c1Cl` [CRIZOTINIB], for which the pIC50 in the data set on NCI-H1993 (Homo sapiens, NCI-H1993, read-out: IC50) was 5.52.

As for `CC1(COC(=O)OCc2ccc(B3OCCCO3)cc2)COC(/C=C/c2ccccc2)OC1` (centres undefined), the pIC50 in the data set with DU-145 [11] is 4.32; in the data set on NIH3T3 [12], 3.74. The Activity in the data set with DU-145 [13] came out at 75%. With `CCN(CC)/[N+]([O-])=N/OCc1cc2ccc(B3OC(C)(C)C(C)(C)O3)cc2oc1=O`, the pIC50 in the data set on A549, with HeLa [14] and in the data set with MDA-MB-231 was 5.00 each time. `CC1(C)OB(c2ccc(C[N+](C)(CCCl)CCCl)cc2)OC1(C)C.[Br-]`: the Activity with SR and in the data set on NCI-H460 was 85% each time.

On to `COc1cccc2c1C(=O)c1c(O)c3c(c(O)c1C2=O)C[C@@](O)(C(=O)CO)C[C@@H]3O[C@H]1C[C@H](NCC(=O)OCc2cc(C)cc(COC(=O)c3ccc(C(=C(c4ccccc4)c4ccccc4)c4ccccc4)cc3)c2OCc2ccc(B3OC(C)(C)C(C)(C)O3)cc2)[C@H](O)[C@H](C)O1`, for which, in the data set on HeLa [15], the pIC50 was 5.70. As to `Nc1ccn([C@@H]2O[C@H](CO)[C@@H](O)C2(F)F)c(=O)n1` [GEMCITABINE], the pIC50 (with PSN1; in the data set with BXPC-3; in [16]) was 8.30 in each case.

For `COc1cccc2c1C(=O)c1c(O)c3c(c(O)c1C2=O)C[C@@](O)(C(=O)CO)C[C@@H]3O[C@H]1C[C@H](NC(=O)OCc2ccc(B3OC(C)(C)C(C)(C)O3)cc2)[C@H](O)[C@H](C)O1`, the Activity in the data set on MCF7 [4] was 30%. `COc1cc(CBr)c(B2OC(C)(C)C(C)(C)O2)c(CBr)c1` showed a pIC50 in [17] of 5.00.
